Results on 2 compounds are retold here after patent US20180071354A1, “SELECTIVE BREEDING METHOD OF ANTITUMOR/ANTICANCER CAMELLIA SINENSIS STRAIN, AND TEA PRODUCT OF SUCH STRAIN” (FUJIAN AGRICULTURE AND FORESTRY UNIVERSITY, priority 2015, published 2018).

Experiment [1] has as its system human liver cancer cell line HepG2. Nature of the experiment: In vitro antitumor/anticancer testing (CCK-8), HepG2. The note with it: 48 h. It is filed as cell-based. Here is the method:
(§1) Each of Tea Product 1 and Conventional Tea Product obtained in section A of this example was used to prepare test tea samples according to the method described below. A proper amount of the respective tea product was added into sterile water to prepare a stock solution with a concentration of 100 mg/mL, followed by using a membrane filter with a pore size of 0.22 μm to conduct vacuum filtration and sterilization. The resulting stock solution was diluted with a respective complete medium shown in Table 3 below to form test tea samples with different concentrations. In other words, the thus obtained test tea samples to be used for treating a respective cancer/tumor cell line shown in Table 3 were prepared using the same complete medium as that for the respective cancer/tumor cell line.
(§2) Specifically, each of the aforesaid commercially available agents was subjected to the method described below to prepare comparative test samples. A proper amount of a respective commercially available agent was dissolved in phosphate-buffered saline (PBS) to prepare a stock solution with a concentration of 5 mg/mL, followed by using a membrane filter with a pore size of 0.22 μm to conduct vacuum filtration and sterilization. The resulting stock solution was diluted with a respective complete medium shown in Table 3 below to form comparative test samples with different concentrations. To be specific, the comparative test samples prepared from the respective commercially available agent have the concentrations shown in Table 2 below. The thus obtained comparative test samples to be used for treating a respective cancer/tumor cell line shown in Table 3 were prepared using the same complete medium as that for the respective cancer/tumor cell line.
(§3) The following cancer/tumor cells purchased from Chinese Academy of Sciences, Shanghai Institutes for Biological Sciences, Institute of Biochemistry and Cell Biology were used for in vitro antitumor/anticancer testing: human liver cancer cell line HepG2, human ovarian cancer cell line SK-OV-3, human cervical cancer cell line Hela, human lung cancer cell line A549, human glioblastoma cell line U-87MG, human mammary gland/duct cancer cell line BT-474, human prostate cancer cell line PC-3, human leukemia cell line HL-60, human gastric cancer cell line SMMC-7721, human colon cancer cell line HCT-116, human squamous cell carcinoma cell line A431, human leukemia cell line K562, human pancreatic cancer cell line PANC-1, and human gastric cancer cell line BGC-823.
(§4) The cultivation of each cancer/tumor cell line is described as follows. The cancer/tumor cancer cells were cultivated in the respective complete medium supplemented with 100 μg/mL penicillin and 100 μg/mL streptomycin in an incubator (37° C., 100% relative humidity, 5% CO2). When adherent cancer/tumor cells reached 80% confluence during the log-phase, cell detachment was conducted using 0.6 mL of 0.3% trypsin. Afterwards, a cell suspension having a cell density of 1.0×10^4 cells/mL was prepared. 100 μL of the cell suspension (i.e. 1000 cancer/tumor cells) was added into wells of a 96-well plate (Cat. No. 3599, Corning Costar), followed by cultivation in an incubator (37° C., 100% relative humidity, 5% CO2) for 24 hours.
(§5) As experimental groups, the tumor/cancer cells of each cell line were treated with the test tea samples prepared from one or more of the tea products and the comparative test samples prepared from one or more of the commercially available agents as obtained in section B of this example (for more detailed information about the tea product(s) and the commercially available product (s) used to treat each cell line, please see Table 4 below). To be specific, 6 to 10 test tea samples prepared from the same tea product and having different concentrations, as well as 6 to 10 comparative test samples prepared from the same commercially available agent and having different concentrations, were utilized to treat the tumor/cancer cells of each cell line. […]

Experiment [2] relates to human prostate cancer cell line PC-3. Nature of the experiment: In vitro antitumor/anticancer testing (CCK-8), PC-3. The class given is cell-based. As to conditions: 48 h. Here is the method:
as §1, §2, §3, §4, §5

Molecules are shown by their SMILES. Values after ≈ are worked out from the molar mass of the structure shown.

As for `O=c1[nH]cc(F)c(=O)[nH]1` [5-fluorouracil], the inhibition at 0.078125 µg/mL in experiment [1] (0.078125 μg/mL, read-out: Percent growth inhibition) came out at 10.9%. Moreover, the inhibition at 0.15625 µg/mL in experiment [1] (0.15625 μg/mL, read-out: Percent growth inhibition) was determined as 24.5%. The inhibition at 0.3125 µg/mL in experiment [1] (0.3125 μg/mL, read-out: Percent growth inhibition) is 37.5%. Besides, the inhibition at 0.625 µg/mL in experiment [1] (0.625 μg/mL, read-out: Percent growth inhibition) worked out at 63.7%. The inhibition at 1.25 µg/mL in experiment [1] (1.25 μg/mL, read-out: Percent growth inhibition) came to 83.3%. The inhibition at 2.5 µg/mL in experiment [1] (2.5 μg/mL, read-out: Percent growth inhibition) was 86%. In addition, in experiment [1] (5 μg/mL, read-out: Percent growth inhibition), the inhibition at 5 µg/mL is 89.1%. Also, the IC50 in experiment [1] (Table 5 concentration series) came to 0.457 µg/mL (≈ 3.52 µM).

On to `O=C(O[C@@H]1Cc2c(O)cc(O)cc2O[C@@H]1c1cc(O)c(O)c(O)c1)c1cc(O)c(O)c(O)c1` [EGCG monomer, epigallocatechin gallate], for which the Percent growth inhibition is recorded as 16.69% in experiment [2] (2.5 μg/mL); 19.10% in experiment [2] (7 μg/mL); 19.64% in experiment [2] (10 μg/mL); 26.03% in experiment [2] (20 μg/mL); 40.11% in experiment [2] (40 μg/mL); 74.43% in experiment [2] (80 μg/mL). Moreover, the Percent growth inhibition in experiment [2] (160 μg/mL) is 86.71%; in experiment [2] (320 μg/mL), 96.31%; in experiment [2] (640 μg/mL) it was 92.53%. The IC50 entry in experiment [2] (PC-3) is listed as “IC50 (μg/mL) = 39.51”.
